The text below walks through data of patent publication US20240327392A1, “HETEROCYCLOALKYL-SUBSTITUTED POLYHETEROAZOLE DERIVATIVES AS MEDICAMENTS FOR TREATING AND/OR PREVENTING RS VIRUS INFECTIONS” (ALBIUS SCIENCES ALPHA PRIVATE LIMITED, priority 2021, published 2024).

One test has as its system human RS virus A2 strain. Put plainly: In vitro test for anti-RS virus proliferation inhibitory activity (quantitative RT-PCR of RS virus RNA copy number in infected Vero cells). The class given is cell-based. The settings on record: 72 h; Vero cells infected with human RS virus A2 strain, 3 days of incubation, RS virus N gene RNA copy number by quantitative RT-PCR; read-out: Anti-RS virus Activity. How it is done:
A mixture of Vero cells (3.4×10^5 cells/mL) and human RS virus A2 strain (1.7×10^4 TCID50/mL) (EMEM medium supplemented with 10% FCS) was added to a 96-well plate at 50 μL/well, and the 10% FCS-supplemented EMEM medium adjusted to the desired final concentration of the compounds to be tested was added at 50 μL/well, followed by incubating the plate at 37° C. in the presence of 5% CO2 at 37° C. After 3 days of incubation, the supernatant was removed, the cells were washed with PBS(−), and the cell lysis buffer supplied with the SingleShot (registered trademark) Cell Lysis Kit (Bio-Rad) was added dropwise at 50 μL/well to lysis the cells thereby providing the cell lysate.
Human RS virus RNA copy number in the cell lysate was determined by quantitative RT-PCR using iTaq Universal SYBR Green One-Step Kit (Bio-Rad). Specifically, primers targeting human RS virus N gene (Rameix-Welti et al, Nat Commun5: 5104, 2014. doi: 10.1038/ncomms6104) was used to prepare the reaction solution according to the instructions provided with the kit, and a 96-well PikoReal Real-Time PCR System (TCR0096, Thermo Fisher Scientific) was used to detect PCR reaction and signal assay.
The copy number was calculated by the relative method using the comparative Ct method using compound-free virus-infected cells as controls.
Turning to `CC(C)CS(=O)(=O)N1C[C@H](O)C[C@H]1c1nc(CCCc2ccccc2)no1` [Compound 3A, 3-(3-phenylpropyl)-5-[(2S,4R)-4-hydroxy-1-isobutylsulfonylpyrrolidin-2-yl]-1,2,4-oxadiazole], the IC50 was above 50 µM.
In the case of `CS(=O)(=O)N1CCC[C@H]1c1nc(CCCc2ccccc2)no1` [Compound 1C, 3-(3-phenylpropyl)-5-[(2S)-1-methanesulfonylpyrrolidin-2-yl]-1,2,4-oxadiazole], the IC50 is above 50 µM.
For the compound `NC(=O)c1ccc2cc(C(=O)N3C[C@H](O)C[C@H]3c3nc(CCCc4ccccc4)no3)ccc2c1` [Compound 4-5], the IC50 is above 50 µM.
In the case of `O=S(=O)(C1CCCCC1)N1C[C@H](O)C[C@H]1c1nc(CCCc2ccccc2)no1` [Compound 3B, 3-(3-phenylpropyl)-5-[(2S,4R)-1-cyclohexylsulfonyl-4-hydroxypyrrolidin-2-yl]-1,2,4-oxadiazole], the IC50 is 10 to 50 µM.

The test is the same for the next values; noted with them: 72 h; Vero cells infected with human RS virus A2 strain, 3 days of incubation, RS virus RNA copy number by quantitative RT-PCR; read-out: Anti-RS virus Activity.
Turning to `O=C(N1CC2(CC2)C[C@H]1c1nc(CCCc2ccccc2)no1)C(F)(F)F` [5D′, 3-(3-Phenylpropyl)-5-{(6S)-5-trifluoroacetyl-5-azaspiro[2.4]hept-6-yl}-1,2,4-oxadiazole], the IC50 was below 10 µM.
In the case of `O=C(c1ccccc1)N1CCCC[C@H]1c1nc(CCCc2ccccc2)no1` [Compound 2S, (S)-Phenyl(2-(3-(3-phenylpropyl)-1,2,4-oxadiazol-5-yl)piperidin-1-yl)methanone], the IC50 was below 10 µM.
On to `O=S(=O)(N1CCCCC1)N1CC(CC2CCC2)CC1c1nc(CCCc2ccccc2)no1` (centres unmarked) [Compound 6AD, 5-(4-(cyclobuthylmethyl)-1-(piperidin-1-ylsulfonyl)pyrrolidin-2-yl)-3-(3-phenylpropyl)-1,2,4-oxadiazole], for which the IC50 fell in the range of 10 to 50 µM.
With `CC(C)(C)NC(=O)N1CCCC[C@H]1c1nc(CCc2ccncc2)no1` [Compound 12H, (S)—N-(tert-butyl)-2-(3-(2-(pyridin-4-yl)ethyl)-1,2,4-oxadiazol-5-yl)piperidine-1-carboxamide], the IC50 lay within 10 to 50 µM.
On the same count and under the same terms, under `O=S(=O)(C1CCCCC1)N1[C@@H]2CC[C@@H](C2)[C@H]1c1nnc(CCc2ccncc2)[nH]1` [Compound 29B, (1R,3S,4S)-2-(cyclohexylsulfonyl)-3-(5-(2-(pyridin-4-yl)ethyl)-4H-1,2,4-triazol-3-yl)-2-azabicyclo[2.2.1]heptane] stands 10 to 50 µM; under `O=S(=O)(c1ccc(F)cc1)N1C[C@H](F)C[C@H]1c1nc(CCCc2ccccc2)no1` [Compound 8AJ, 5-((2S,4R)-4-fluoro-1-((4-fluorophenyl)sulfonyl)pyrrolidin-2-yl)-3-(3-phenylpropyl)-1,2,4-oxadiazole], below 10 µM; under `O=S(=O)(N1CCCC[C@H]1c1nc(CCCc2ccccc2)no1)C12CC3CC(CC(C3)C1)C2` [Compound 2AG, 5-((S)-1-((adamantan-1-yl)sulfonyl)piperidin-2-yl)-3-(3-phenylpropyl)-1,2,4-oxadiazole], 10 to 50 µM.
`CN(C)c1cccc2c(S(=O)(=O)N3CC4(CC4)C[C@H]3c3nc(CCCc4ccccc4)no3)cccc12` [Compound 5AL, (S)-N,N-dimethyll-5-((6-(3-(3-phenylpropyl)-1,2,4-oxadiazole-5-yl)-5-azaspiro[2.4]heptan-5-yl)sulfonyl)naphthalen-1-amine]: the IC50 was below 10 µM.
Regarding `O=C(NCc1ccccc1)N1CCC[C@H]1c1nc(CCCc2ccccc2)no1` [Compound 1F, (S)—N-Benzyl-2-(3-(3-phenylpropyl)-1,2,4-oxadiazol-5-yl) pyrrolidine-1-carboxamide], the IC50 lay in the range of 10 to 50 µM.
As for `O=C(NCc1noc([C@@H]2C[C@@H](c3ccccc3)CN2S(=O)(=O)c2ccc(F)cc2)n1)c1cnc2ccccc2c1` [Compound 46AJ, N-((5-((2S,4S)-1-((4-fluorophenyl)sulfonyl)-4-phenylpyrrolidin-2-yl)-1,2,4-oxadiazol-3-yl)methyl)quinoline-3-carboxamide], the IC50 is 10 to 50 µM.
Consider `COc1ccc(S(=O)(=O)N2CC(CC3CCC3)CC2c2nc(CCCc3ccccc3)no2)cc1` (centres unmarked) [Compound 6AI, 5-(4-(cyclobuthylmethyl)-1-((4-methoxyphenyl)sulfonyl)pyrrolidin-2-yl)-3-(3-phenylpropyl)-1,2,4-oxadiazole], for which the IC50 is below 10 µM.
Consider `CC(C)(C)OC(=O)N1CCCC[C@H]1c1noc(CCCc2ccccc2)n1` [Compound C3-16-1, Tert-butyl (S)-2-(5-(3-phenylpropyl)-1,2,4-oxadiazol-3-yl) piperidine-1-carboxylate], for which the IC50 was below 10 µM.
On the same count and under the same terms, under `O=S(=O)(c1ccccc1)N1CC(c2ccccc2)C[C@H]1c1nc(CCCc2ccccc2)no1` (stereo in doubt) [Compound 7D, 3-(3-phenylpropyl)-5-[(2S,4S)-1-benzenesulfonyl-4-phenylpyrrolidin-2-yl]-1,2,4-oxadiazole] stands below 10 µM; under `CN(C)c1cccc2c(S(=O)(=O)N3CC(CC4CCC4)CC3c3nc(CCCc4ccccc4)no3)cccc12` (centres unmarked) [Compound 6AL, 5-((4-(cyclobuthylmethyl)-2-(3-(3-phenylpropyl)-1,2,4-oxadiazole-5-yl)pyrrolidin-1-yl)sulfonyl)-N,N-dimethylnaphthalen-1-amine], below 10 µM.
On the same count and under the same terms, under `CC(C)(C)OC(=O)N1CCC[C@H]1c1nc(CCc2ccccc2)no1` [Compound 9-1, 3-(2-phenylethyl)-5-[(2S)-1-tert-butoxycarbonylpyrrolidin-2-yl]-1,2,4-oxadiazole] stands above 50 µM; under `[O-][S+](N1CCCC[C@H]1c1nc(CCCc2ccccc2)no1)C12CC3CC(CC(C3)C1)C2` (stereo partly drawn) [2AF′, 5-((2S)-1-((adamantan-1-yl)sulfinyl)piperidin-2-yl)-3-(3-phenylpropyl)-1,2,4-oxadiazole], 10 to 50 µM; under `CC(C)(C)OC(=O)NCc1ccc(CCCc2noc([C@@H]3CCCCN3S(=O)(=O)C3CCCCC3)n2)cc1` [Compound 30B], 10 to 50 µM.
On the same count and under the same terms, under `CC(C)(C)OC(=O)N1[C@@H]2CC[C@@H](C2)[C@H]1c1nc(CCc2ccccc2)no1` [Compound 14-1, Tert-butyl (1R,3S,4S)-3-(3-phenethyl-1,2,4-oxadiazol-5-yl)-2-azabicyclo[2.2.1]heptane-2-carboxylate] stands below 10 µM; under `N#C[C@H]1C[C@@H](c2nc(CCCc3ccccc3)no2)N(S(=O)(=O)c2ccc(F)cc2)C1` [Compound 41AJ, (3S,5S)-1-((4-fluorophenyl)sulfonyl)-5-(3-(3-phenylpropyl)-1,2,4-oxadiazol-5-yl)pyrrolidine-3-carbonitrile], 10 to 50 µM; under `O=C(OCc1ccccc1)N1CCC[C@H]1c1nc(CCCc2ccccc2)no1` [Compound 1J, Benzyl (S)-2-(3-(3-phenylpropyl)-1,2,4-oxadiazol-5-yl) pyrrolidine-1-carboxylate], below 10 µM.
With `CC(C)(C)OC(=O)NCc1noc([C@@H]2C[C@@H](c3ccccc3)CN2S(=O)(=O)c2ccc(F)cc2)n1` [Compound 43AJ, Tert-butyl ((5-((2S,4S)-1-((4-fluorophenyl)sulfonyl)-4-phenylpyrrolidin-2-yl)-1,2,4-oxadiazol-3-yl)methyl) carbamate], the IC50 fell in the range of 10 to 50 µM.
Same read-out and setting: the figure for `O=S(=O)(C1CCOCC1)N1CC(CC2CCC2)CC1c1nc(CCCc2ccccc2)no1` (centres unmarked) [Compound 6AP, 5-(4-(cyclobuthylmethyl)-1-((tetrahydro-2H-pyran-4-yl)sulfonyl)pyrrolidin-2-yl)-3-(3-phenylpropyl)-1,2,4-oxadiazole] is below 10 µM; for `c1ccc(CCCc2noc([C@@H]3CCCCN3CCc3ccccc3)n2)cc1` [Compound 2AB, (S)-5-(1-phenethylpiperidin-2-yl)-3-(3-phenylpropyl)-1,2,4-oxadiazole] it is 10 to 50 µM.
Same read-out and setting: under `CN(C)c1ccc(S(=O)(=O)N2C[C@H](c3ccccc3)C[C@H]2c2nc(CCCc3ccccc3)no2)cc1` [Compound 7AK, N,N-dimethyl-4-(((2S,4S)-4-phenyl2-(3-(3-phenylpropyl)-1,2,4-oxadiazole-5-yl)pyrrolidin-1-yl)sulfonyl)aniline] stands below 10 µM.
On to `O=C(OC1CCCC1)N1CCC[C@H]1c1nc(CCCc2ccccc2)no1` [Compound 1O, Cyclopentyl (S)-2-(3-(3-phenylpropyl)-1,2,4-oxadiazol-5-yl) pyrrolidine-1-carboxylate], for which the IC50 is 10 to 50 µM.
Turning to `c1ccc(CCCc2noc([C@@H]3CCCCN3CC3CCCCC3)n2)cc1` [Compound 2U, (S)-5-(1-(cyclohexylmethyl)piperidin-2-yl)-3-(3-phenylpropyl)-1,2,4-oxadiazole], the IC50 was below 10 µM.
Consider `CC(C)CS(=O)(=O)N1CC(c2ccccc2)C[C@H]1c1nc(CCCc2ccccc2)no1` (stereo in doubt) [Compound 7A, 3-(3-phenylpropyl)-5-[(2S,4S)-1-isobutylsulfonyl-4-phenylpyrrolidin-2-yl]-1,2,4-oxadiazole], for which the IC50 was below 10 µM.
Consider `CC(C)(C)OC(=O)N1CCCC[C@H]1c1nc(CCc2ccncc2)no1` [Compound 12-1, Tert-butyl (S)-2-(3-(2-(pyridin-4-yl)ethyl)-1,2,4-oxadiazol-5-yl)piperidine-1-carboxylate], for which the IC50 was below 10 µM.
